Assay results published in US10294202B2, “Pyrrolidinones as herbicides” (FMC Corporation, priority 2013, dated 2019).

Key:
corn [1] = assay: Test A pre-/postemergence herbicide test; assay type: in vivo, Zea mays
Procedure, shortened: (§1)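 Seeds in loam–sand blend received preemergence directed soil spray; separately, plants 2–10 cm at one- to two-leaf stage received postemergence spray, both with test chemicals in non-phytotoxic solvent with surfactant. After ~10 days in greenhouse, injury rated visually against untreated controls, 0 (no effect) to 100 (complete control).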

pigweed = assay: Test A pre-/postemergence herbicide test; assay type: in vivo, Amaranthus retroflexus
Procedure, shortened: as §1

ryegrass, Italian = assay: Test C pre-/postemergence herbicide test; assay type: in vivo, Lolium multiflorum; conditions: Preemergence; for Plant response rating, Ryegrass, Italian: 125 g ai/ha; for Plant response rating (scale of 0 to 100), Ryegrass, Italian: 250 g ai/ha
Procedure, shortened: (§2)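 Pre-emergence: seeds sown in loam/sand blend and treated with compound in surfactant-containing solvent. Post-emergence: plants at 2–18 cm (1- to 4-leaf stage) in peat-based medium sprayed with the same formulation. Visual rating versus controls after 13–15 days in greenhouse, scale 0 (no effect) to 100 (complete control).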

galium = assay: Test C pre-/postemergence herbicide test; assay type: in vivo, Galium aparine; conditions: Preemergence; for Plant response rating, Galium: 125 g ai/ha; for Plant response rating (scale of 0 to 100), Galium: 250 g ai/ha
Procedure, shortened: as §2

corn [2] = assay: Test C pre-/postemergence herbicide test; assay type: in vivo, Zea mays; conditions: Preemergence; for Plant response rating, Corn: 125 g ai/ha; for Plant response rating (scale of 0 to 100), Corn: 250 g ai/ha
Text: (§3) Seeds of plant species selected from blackgrass (Alopecurus myosuroides), ryegrass, Italian (Italian ryegrass, Lolium multiflorum), wheat (winter wheat, Triticum aestivum), galium (catchweed bedstraw, Galium aparine), corn (Zea mays), crabgrass, large (large crabgrass, Digitaria sanguinalis), foxtail, giant (giant foxtail, Setaria faberii), johnsongrass (Sorghum halepense), lambsquarters (Chenopodium album), morningglory (Ipomoea coccinea), nutsedge, yellow (yellow nutsedge, Cyperus esculentus), pigweed (Amaranthus retroflexus), ragweed (common ragweed, Ambrosia elatior), soybean (Glycine max), barnyardgrass (Echinochloa crus-galli), oilseed rape (Brassica napus), waterhemp (common waterhemp, Amaranthus rudis), kochia (Kochia scoparia), oat, wild (wild oat, Avena fatua), surinam grass (Brachiaria decumbens), foxtail, green (green foxtail, Setaria viridis), goosegrass (Eleusine indica), bromegrass, downy (downy bromegrass, Bromus tectorum), nightshade (eastern black nightshade, Solanum ptycanthum), cocklebur (common cocklebur, Xanthium strumarium), cupgrass, woolly (woolly cupgrass, Eriochloa villosa), bermudagrass (Cynodon dactylon), sunflower, (common oilseed sunflower, Helianthus annuus), Russian thistle (Salsola kali) and velvetleaf (Abutilon theophrasti) were planted into a blend of loam soil and sand and treated preemergence with test chemicals formulated in a non-phytotoxic solvent mixture which included a surfactant. At the same time, plants selected from these crop and weed species and also barley (winter barley, Hordeum vulgare), […]), chickweed (common chickweed, Stellaria media), deadnettle (henbit deadnettle, Lamium amplexicaule), and canarygrass (littleseed canarygrass, Phalaris minor) were planted in pots containing Redi-Earth® planting medium (Scotts Company, 14111 Scottslawn Road, Marysville, Ohio 43041) comprising spaghnum peat moss, vermiculite, wetting agent and starter nutrients and treated with postemergence applications of test chemicals formulated in the same manner. Plants ranged in height from 2 to 18 cm (1- to 4-leaf stage) for postemergence treatments. Treated plants and controls were maintained in a greenhouse for 13 to 15 days, after which time all species were compared to controls and visually evaluated. Plant response ratings, summarized in Table C, are based on a scale of 0 to 100 where 0 is no effect and 100 is complete control. A dash (-) response means no test result.

sedge, umbrella = assay: Test B flooded paddy test; assay type: in vivo, Cyperus difformis; conditions: 1000 g ai/ha, Flood; scale of 0 to 100 where 0 is no effect and 100 is complete control
Procedure, shortened: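 Paddy-water application at a 3 cm flood, young plants having two leaves. Water level maintained; greenhouse, 13–15 days; visual 0–100 control rating.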

barnyardgrass = assay: Test A pre-/postemergence herbicide test; assay type: in vivo, Echinochloa crus-galli
Procedure, shortened: as §1

ragweed = assay: Test C pre-/postemergence herbicide test; assay type: in vivo, Ambrosia elatior; conditions: Preemergence; for Plant response rating, Ragweed: 125 g ai/ha; for Plant response rating (scale of 0 to 100), Ragweed: 250 g ai/ha
Procedure, shortened: as §2

soybean = assay: Test C pre-/postemergence herbicide test; assay type: in vivo, Glycine max; conditions: Preemergence; for Plant response rating, Soybean: 125 g ai/ha; for Plant response rating (scale of 0 to 100), Soybean: 250 g ai/ha
Text: as §3

foxtail, giant = assay: Test C pre-/postemergence herbicide test; assay type: in vivo, Setaria faberii; conditions: Preemergence; for Plant response rating, Foxtail, Giant: 125 g ai/ha; for Plant response rating (scale of 0 to 100), Foxtail, Giant: 250 g ai/ha
Text: as §3

[3] = Postemergence, 125 g ai/ha, 0 to 100 scale, 0 is no effect, 100 is complete control
[4] = Postemergence, 500 g ai/ha, 0 to 100 scale (0 no effect, 100 complete control)
[5] = Preemergence, 125 g ai/ha, 0 to 100 scale where 0 is no effect and 100 is complete control
[6] = preemergence, 500 g ai/ha, 0 to 100 scale, 0 is no effect and 100 is complete control
[7] = 31 g ai/ha, scale 0 to 100, 0 is no effect and 100 is complete control
[8] = 62 g ai/ha, scale 0 to 100 (0 no effect, 100 complete control)
[9] = scale 0 to 100 (0 no effect, 100 complete control)

Row | SMILES | Plant response rating, Corn (corn [1]; [3]) | Plant response rating, Corn (corn [1]; [4]) | Plant response rating, Corn (corn [1]; [5]) | Plant response rating, Corn (corn [1]; [6]) | Plant response rating, Pigweed (pigweed; [3]) | Plant response rating, Pigweed (pigweed; [4]) | Plant response rating, Pigweed (pigweed; [5]) | Plant response rating, Pigweed (pigweed; [6]) | Ryegrass, Italian plant response rating (ryegrass, Italian; [7]) | Ryegrass, Italian plant response rating (ryegrass, Italian; [8]) | Plant response rating, Ryegrass, Italian (ryegrass, Italian; [9]) | Plant response rating (scale of 0 to 100), Ryegrass, Italian (ryegrass, Italian) | Galium plant response rating (galium; [7]) | Galium plant response rating (galium; [8]) | Plant response rating, Galium (galium; [9]) | Plant response rating (scale of 0 to 100), Galium (galium) | Corn plant response rating (corn [2]; [7]) | Corn plant response rating (corn [2]; [8]) | Plant response rating, Corn (corn [2]; [9]) | Plant response rating (scale of 0 to 100), Corn (corn [2]) | further results
1 | O=C1NCC(c2ccc(C(F)(F)F)c(F)c2)C1C(=O)Nc1ccccc1F (racemic) [Compound 246] | 20 | 30 | 0 | 0 | 0 | 0 | 0 | 0 | 0 | 0 | 10 | 10 | 10 | 90 | 90 | 90 | 0 | 0 | 5 | 0 | Plant response rating, Sedge, Umbrella (sedge, umbrella): 20; Plant response rating, Barnyardgrass (barnyardgrass; [3]): 70; Plant response rating, Barnyardgrass (barnyardgrass; [4]): 70; Plant response rating, Barnyardgrass (barnyardgrass; [5]): 80; Plant response rating, Barnyardgrass (barnyardgrass; [6]): 90; Ragweed plant response rating (ragweed; [7]): 0; Ragweed plant response rating (ragweed; [8]): 0; Plant response rating, Ragweed (ragweed; [9]): 0; Plant response rating (scale of 0 to 100), Ragweed (ragweed): 40; Soybean plant response rating (soybean; [7]): 0; Soybean plant response rating (soybean; [8]): 0; Plant response rating, Soybean (soybean; [9]): 0; Plant response rating (scale of 0 to 100), Soybean (soybean): 10; Foxtail, Giant plant response rating (foxtail, giant; [7]): 85; Foxtail, Giant plant response rating (foxtail, giant; [8]): 90; Plant response rating, Foxtail, Giant (foxtail, giant; [9]): 95; Plant response rating (scale of 0 to 100), Foxtail, Giant (foxtail, giant): 95
2 | O=C1NCC(c2ccc(C(F)(F)F)c(F)c2)C1C(=O)Nc1cccc(F)c1F (racemic) [Compound 247] | 0 | 20 | 0 | 0 | 0 | 0 | 0 | 0 | 0 | 35 | 40 | 50 | 90 | 90 | 90 | 90 | 5 | 15 | 60 | 60 | Plant response rating, Sedge, Umbrella (sedge, umbrella): 0; Plant response rating, Barnyardgrass (barnyardgrass; [3]): 60; Plant response rating, Barnyardgrass (barnyardgrass; [4]): 80; Plant response rating, Barnyardgrass (barnyardgrass; [5]): 90; Plant response rating, Barnyardgrass (barnyardgrass; [6]): 90; Ragweed plant response rating (ragweed; [7]): 100; Ragweed plant response rating (ragweed; [8]): 85; Plant response rating, Ragweed (ragweed; [9]): 70; Plant response rating (scale of 0 to 100), Ragweed (ragweed): 98; Soybean plant response rating (soybean; [7]): 0; Soybean plant response rating (soybean; [8]): 0; Plant response rating, Soybean (soybean; [9]): 0; Plant response rating (scale of 0 to 100), Soybean (soybean): 0; Foxtail, Giant plant response rating (foxtail, giant; [7]): 95; Foxtail, Giant plant response rating (foxtail, giant; [8]): 95; Plant response rating, Foxtail, Giant (foxtail, giant; [9]): 98; Plant response rating (scale of 0 to 100), Foxtail, Giant (foxtail, giant): 100
